Test results published in patent US20250195530A1, “POLQ INHIBITORS” (ASTRAZENECA AB, priority 2022, published 2025).
Read-outs that look alike come from different tables or passages of the source.

Assays:
DLD-1 cells = assay: Inhibition of proliferation, DLD-1 BRCA2 wt control (Cell Titre Glo 3D); format: cell-based; conditions: Homo sapiens
Summary of the method: (§1)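 Luminescent Cell Titre Glo 3D readout, taken on day 12 for homologous-recombination-deficient DLD-1 BRCA2−/− and day 7 for the wild-type control, after compound refresh on day 6. Compounds spanned 10 μM to 0.51 nM in three-fold steps; IC50 defined as 50% reduction of average maximum signal.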

DLD-1 BRCA2−/− cells = assay: Homologous recombination synthetic lethal inhibition of proliferation, DLD-1 BRCA2-/- (Cell Titre Glo 3D); format: cell-based; conditions: for IC50: Homo sapiens
Summary of the method: as §1

[1] = DLD-1, 168 h, DLD-1 BRCA2 wt cells, 7 days, read-out: POLQ PD Prolif Lumin DLD1 mean pIC50 (converted)
[2] = DLD-1, 288 h, DLD-1 BRCA2−/− cells, 12 days, read-out: POLQ PD Prolif Lumin BRCA2 −/− mean pIC50 (converted)
[3] = DLD-1, DLD1 BRCA2 wt, mean, read-out: POLQ PD Prolif Lumin DLD1 mean pIC50 (converted)
[4] = DLD-1, DLD-1 BRCA2 −/−, mean, read-out: POLQ PD Prolif Lumin BRCA2 −/− mean pIC50 (converted)
[5] = DLD-1, second proliferation column, DLD-1 BRCA2 wt control, read-out: POLQ PD Prolif Lumin (converted)
[6] = DLD-1, first proliferation column, DLD-1 BRCA2-/-, read-out: POLQ PD Prolif Lumin (converted)

Row | IC50 (DLD-1 cells; [1]) | Structure (SMILES) | IC50 (DLD-1 BRCA2−/− cells; [2]) | further results
1 | 5010 nM | CC1(Oc2ncnc3c2nc(-c2ccc(OCCCN)cc2Cl)n3Cc2ccccc2)CC1 [Example D6, 3-(4-(9-benzyl-6-(1-methylcyclopropoxy)-9H-purin-8-yl)-3-chlorophenoxy)propan-1-amine] | 631 nM | 
2 | 1580 nM | CC1(Oc2ncnc3c2nc(-c2ccc(OCCN4CCC(O)CC4)cc2Cl)n3Cc2ccccc2)CC1 [Example H15, 1-(2-(4-(9-benzyl-6-(1-methylcyclopropoxy)-9H-purin-8-yl)-3-chlorophenoxy)ethyl)piperidin-4-ol] | 79.4 nM | 
3 |  | C[C@H](CCOc1cccc(-c2nc3c(OC4(C)CC4)ncnc3n2Cc2cc(Cl)ccc2F)c1Cl)C(=O)O [Example U26, (R)-4-(2-chloro-3-(9-(5-chloro-2-fluorobenzyl)-6-(1-methylcyclopropoxy)-9H-purin-8-yl)phenoxy)-2-methylbutanoic acid] |  | IC50 (DLD-1 cells; [3]): > 10000 nM; IC50 (DLD-1 BRCA2−/− cells; [4]): 25.1 nM
4 |  | C[C@@H](CCOc1ccc(-c2nc3c(OC4(C)CC4)ncnc3n2Cc2cc(Cl)ccc2C#N)c(Cl)c1)C(=O)O [Example U82, (S)-4-(3-chloro-4-(9-(5-chloro-2-cyanobenzyl)-6-(1-methylcyclopropoxy)-9H-purin-8-yl)phenoxy)-2-methylbutanoic acid] |  | IC50 (DLD-1 cells; [3]): > 10000 nM; IC50 (DLD-1 BRCA2−/− cells; [4]): 50.1 nM
5 | 6310 nM | CC1(Oc2ncnc3c2nc(-c2ccc(CN)cc2Cl)n3Cc2ccccc2)CC1 [Example N7, (4-(9-benzyl-6-(1-methylcyclopropoxy)-9H-purin-8-yl)-3-chlorophenyl)methanamine] | 631 nM | 
6 | > 10000 nM | CC1(Oc2ncnc3c2nc(-c2ccc(C(=O)N4CCNCC4)cc2Cl)n3Cc2ccccc2)CC1 [Example N3, (4-(9-benzyl-6-(1-methylcyclopropoxy)-9H-purin-8-yl)-3-chlorophenyl)(piperazin-1-yl)methanone] | 794 nM | 
7 | 3160 nM | CN1CCN(CCOc2ccc(-c3nc4c(OC5(C)CC5)ncnc4n3Cc3cccc(Cl)c3)c(Cl)c2)CC1 [Example E2, 8-(2-chloro-4-(2-(4-methylpiperazin-1-yl)ethoxy)phenyl)-9-(3-chlorobenzyl)-6-(1-methylcyclopropoxy)-9H-purine] | 25.1 nM | 
8 |  | CC(CCOc1ccc(-c2nc3c(OC4(C)CC4)ncnc3n2Cc2c(Cl)cccc2Cl)c(Cl)c1)C(=O)O (racemic) [Example T277, 4-(3-chloro-4-(9-(2,6-dichlorobenzyl)-6-(1-methylcyclopropoxy)-9H-purin-8-yl)phenoxy)-2-methylbutanoic acid] |  | IC50 (DLD-1 cells; DLD-1, DLD-1 BRCA2 wt control proliferation, column head only partly shown, read-out: POLQ PD Prolif Lumin (converted)): > 10000 nM; IC50 (DLD-1 BRCA2−/− cells; DLD-1, DLD-1 BRCA2-/- proliferation, column head only partly shown, read-out: POLQ PD Prolif Lumin (converted)): 2000 nM
9 | 7940 nM | CC1(Oc2ncnc3c2nc(-c2ccc(OCCN4CCNCC4)cc2Cl)n3Cc2cc(C(F)(F)F)ccn2)CC1 [Example K8, 8-(2-chloro-4-(2-(piperazin-1-yl)ethoxy)phenyl)-6-(1-methylcyclopropoxy)-9-((4-(trifluoromethyl)pyridin-2-yl)methyl)-9H-purine] | 398 nM | 
10 | > 10000 nM | Cc1cc(OC[C@H]2CNCCO2)ncc1-c1nc2c(OC3(C)CC3)ncnc2n1Cc1ccccc1 [Example G15, (R)-2-(((5-(9-benzyl-6-(1-methylcyclopropoxy)-9H-purin-8-yl)-4-methylpyridin-2-yl)oxy)methyl)morpholine] | 398 nM | 
11 |  | Cc1ccnc(Cn2c(-c3cccc(CC(N)=O)c3Cl)nc3c(OC4(C)CC4)ncnc32)c1 [Example T56, 2-(2-chloro-3-(6-(1-methylcyclopropoxy)-9-((4-methylpyridin-2-yl)methyl)-9H-purin-8-yl)phenyl)acetamide] |  | IC50 (DLD-1 cells; DLD-1, DLD1 BRCA2 wt cells, mean, read-out: POLQ PD Prolif Lumin DLD1 mean PIC50 (converted)): > 10000 nM; IC50 (DLD-1 BRCA2−/− cells; DLD-1, DLD-1 BRCA2 −/− cells, mean, read-out: POLQ PD Prolif Lumin BRCA2 −/− mean pIC50 (converted)): 794 nM
12 | > 10000 nM | CC(c1cc(Cl)ccn1)n1c(-c2ccc(OCCN3CCNCC3)cc2Cl)nc2c(OC3(C)CC3)ncnc21 (single isomer, unassigned; isomer 2) [Example S5, 8-(2-chloro-4-(2-(piperazin-1-yl)ethoxy)phenyl)-9-(1-(4-chloropyridin-2-yl)ethyl)-6-(1-methylcyclopropoxy)-9H-purine (Isomer 2)] |  | POLQ PD Prolif Lumin BRCA2 −/− mean pIC50 (DLD-1 BRCA2−/− cells; DLD-1 BRCA2−/− cells, 12 days): 6.1
13 |  | Cc1ccnc(Cn2c(-c3ccc(CCN4CCC(O)CC4)cc3Cl)nc3c(OC4(C)CC4)ncnc32)c1 [Example T591, 1-(3-chloro-4-(6-(1-methylcyclopropoxy)-9-((4-methylpyridin-2-yl)methyl)-9H-purin-8-yl)phenethyl)piperidin-4-ol] |  | IC50 (DLD-1 cells; [5]): > 10000 nM; IC50 (DLD-1 BRCA2−/− cells; [6]): 316 nM
14 |  | Cc1ccnc(Cn2c(-c3ccc(OC4CN(C(=O)CO)C4)cc3Cl)nc3c(OC4(C)CC4)ncnc32)c1 [Example 39, 1-(3-(3-Chloro-4-(6-(1-methylcyclopropoxy)-9-((4-methylpyridin-2-yl)methyl)-9H-purin-8-yl)phenoxy)azetidin-1-yl)-2-hydroxyethan-1-one] |  | IC50 (DLD-1 cells; DLD-1, 168 h, DLD-1 (BRCA2 wt control), 7 days, Cell Titre Glo 3D, read-out: POLQ PD Prolif Lumin DLD1 Mean pIC50 (converted)): > 10000 nM; IC50 (DLD-1 BRCA2−/− cells; DLD-1, 288 h, DLD-1 BRCA2−/−, 12 days, Cell Titre Glo 3D, read-out: POLQ PD Prolif Lumin BRCA2 −/− Mean pIC50 (converted)): 158 nM
15 | 5010 nM | CC1(Oc2ncnc3c2nc(-c2cccc(OCCN4CCNCC4)c2Cl)n3Cc2ccccc2)CC1 [Example D10, 9-benzyl-8-(2-chloro-3-(2-(piperazin-1-yl)ethoxy)phenyl)-6-(1-methylcyclopropoxy)-9H-purine] | 126 nM | 
16 | 5010 nM | C[C@H](Cn1c(-c2ccc(OCCN3CCNCC3)cc2Cl)nc2c(OC3(C)CC3)ncnc21)c1ccccc1 [Example J9, (S)-8-(2-chloro-4-(2-(piperazin-1-yl)ethoxy)phenyl)-6-(1-methylcyclopropoxy)-9-(2-phenylpropyl)-9H-purine] | 2510 nM | 
17 | > 10000 nM | CC1(Oc2ncnc3c2nc(-c2ccc(OCCN4CCNCC4)cc2Cl)n3Cc2csc(Cl)n2)CC1 [Example L7, 2-chloro-4-((8-(2-chloro-4-(2-(piperazin-1-yl)ethoxy)phenyl)-6-(1-methylcyclopropoxy)-9H-purin-9-yl)methyl)thiazole] | 1580 nM | 
18 |  | Cc1cc(OCCN2CCNCC2)ccc1-c1nc2c(OC3(C)CC3)ncnc2n1Cc1cc(Cl)ccn1 [Example T529, 9-((4-chloropyridin-2-yl)methyl)-8-(2-methyl-4-(2-(piperazin-1-yl)ethoxy)phenyl)-6-(1-methylcyclopropoxy)-9H-purine] |  | IC50 (DLD-1 cells; DLD-1, second proliferation column (c6), DLD-1 BRCA2 wt control, read-out: POLQ PD Prolif Lumin (converted)): > 10000 nM; IC50 (DLD-1 BRCA2−/− cells; DLD-1, first proliferation column (c5), DLD-1 BRCA2-/-, read-out: POLQ PD Prolif Lumin (converted)): 631 nM
19 | > 10000 nM | CC1(Oc2ncnc3c2nc(-c2ccc(OCCN4CCNC(=O)C4)cc2Cl)n3Cc2ccccc2)CC1 [Example D15, 4-(2-(4-(9-benzyl-6-(1-methylcyclopropoxy)-9H-purin-8-yl)-3-chlorophenoxy)ethyl)piperazin-2-one] | 79.4 nM | 
20 | > 10000 nM | Cc1cc(OCCN2CCNCC2)ncc1-c1nc2c(OC3(C)CC3)ncnc2n1Cc1cccc(Cl)c1 [Example J6, 9-(3-chlorobenzyl)-8-(4-methyl-6-(2-(piperazin-1-yl)ethoxy)pyridin-3-yl)-6-(1-methylcyclopropoxy)-9H-purine] | 631 nM | 
21 |  | Cc1cnc(Cn2c(-c3ccc(OCCN4CCNCC4)cc3Cl)nc3c(OC4(C)CC4)ncnc32)cc1C [Example T596, 8-(2-chloro-4-(2-(piperazin-1-yl)ethoxy)phenyl)-9-((4,5-dimethylpyridin-2-yl)methyl)-6-(1-methylcyclopropoxy)-9H-purine] |  | IC50 (DLD-1 cells; [5]): > 10000 nM; IC50 (DLD-1 BRCA2−/− cells; [6]): 5010 nM
22 | > 10000 nM | CC(=O)N1CCN(CCCOc2ccc(-c3nc4c(OC5(C)CC5)ncnc4n3Cc3ccccc3)c(Cl)c2)CC1 [Example D22, 1-(4-(3-(4-(9-benzyl-6-(1-methylcyclopropoxy)-9H-purin-8-yl)-3-chlorophenoxy)propyl)piperazin-1-yl)ethan-1-one] | 126 nM | 
23 |  | CC1(Oc2ncnc3c2nc(-c2ccc(OCCCN4CC(O)C4)cc2Cl)n3Cc2cc(C(F)(F)F)ccn2)CC1 [Example T425, 1-(3-(3-chloro-4-(6-(1-methylcyclopropoxy)-9-((4-(trifluoromethyl)pyridin-2-yl)methyl)-9H-purin-8-yl)phenoxy)propyl)azetidin-3-ol] |  | IC50 (DLD-1 cells; DLD-1, proliferation, luminescence, second Prolif column (c6), taken as DLD-1 BRCA2 wt control, read-out: POLQ PD Prolif Lumin (converted)): > 10000 nM; IC50 (DLD-1 BRCA2−/− cells; DLD-1, proliferation, luminescence, taken as DLD-1 BRCA2-/-, read-out: POLQ PD Prolif Lumin (converted)): 501 nM
24 |  | Cc1ccnc(Cn2c(-c3ccc(OCCN4CCNCC4)cc3Cl)nc3c(OC4(C)CC4)ncnc32)c1C [Example T597, 8-(2-chloro-4-(2-(piperazin-1-yl)ethoxy)phenyl)-9-((3,4-dimethylpyridin-2-yl)methyl)-6-(1-methylcyclopropoxy)-9H-purine] |  | IC50 (DLD-1 cells; [5]): 6310 nM; IC50 (DLD-1 BRCA2−/− cells; [6]): 2510 nM
